The text below walks through data of patent EP2657347A1, “Electrochemical competitive assay and use thereof” (Université Paris Diderot - Paris 7, priority 2012, dated 2013).

Series [1] addresses D-Apt49. The series is described as follows: Redox-mediated catalytic cyclic voltammetry titration with aptamer. Format: binding. How it is done:
(§1) All experiments were performed in 5 mM Tris buffer (pH 7) containing 10 mM MgCl2 and 50 mM NaCl (Recognition Buffer, RBr). The L-Tym concentration is always 5 µM. For cyclic voltammetric experiments, 1 µM [Os(bpy)3]2+ with 5 µM 1-Tym in a droplet of 50 µL RBr was used. So, before each experiment, the droplet is shaking with a micropipette. This procedure is repeated until we obtain a reproducible and stable voltammogram. Mother solution of Fc-1-Tym was a […] solution in DMF. This product is conserved at 4°C and seal with parafilm. Before each experiment, this solution is diluted 10 times in stabilized DMF, such as 0.2 µL in 50 µL of RBr leads to 5 µM of Fc-1-Tym.
(§2) Cyclic voltammetry measurements were performed with an AUTOLAB PGSTAT 12 potentiostat/galvanostat controlled by computer, and the data were acquired using GPES 4.9007 software (EcoChemie, The Netherlands). Small self-contained electrochemical cells made of 3 screen-printed electrodes on a flat substrate were used for all experiments. The electrodes were printed using a DEK model-65 screen-printer. Working electrodes were 4 mm diameter screen-printed carbon electrodes prepared using a commercial carbon ink (Electrodag PF-470 A) deposited on the top of an underlying Ag layer (Electrodag 418 SS). Counter electrode was obtained using an Ag ink (Electrodag 418 SS).
(§3) Before experiments, the screen-printed carbon electrodes were coated with bovine serum albumin (BSA) by immersing the electrodes in a 1 mg/mL BSA solution for 10 minutes at room temperature. The BSA-modified electrodes were next cycled between 0 V and 0.8 V at v = 0.05 V/s, until of the capacitive background current in cyclic voltammetry was stablized.
The 49-mer aptamer we have used (see here above) is a sequence similar to the one that was previously selected by Vianini et al and successfully applied to chromatographic- and fluorescence-based L-Tym assays. Since direct electrochemical oxidation of phenolic compounds generally leads to electrode passivation and thus to poorly reproducible anodic peak current in cyclic voltammetry (CV), the electrochemical detection of L-Tym was performed by redox-mediated catalytic oxidation of the phenolic function. For such a purpose, we have used the one-electron redox mediator couple [Os^III/II(bpy)3]^3+/2+ which, according to its relatively high standard potential (E^0=+0.58 V vs. Ag/AgCl), is capable to efficiently catalyze the oxidation of phenolic compounds. [drawing 51]
The linear dependence of the peak current with both the square root of scan rate, v, and L-Tym concentration, indicates conditions of total catalysis for which the catalytic peak current response, ip, can be expressed by eq 1. ip = 0.609nFSCT^0 sqrt(DT)sqrt(fv/RT) [formula] where n is the number of electron involved in the catalytic reaction, F the Faraday constant, S the electrode area, C^0T the bulk concentration of L-Tym, and DT the diffusion coefficient of L-Tym. After aptamer addition, the binding reaction (eq 2) is rapidly set at equilibrium. [drawing 53] with Kd the dissociation constant. On the basis of a classical law of action mass and mass balance (i.e., C^0T = CT + CRT, with CT and CRT the free and receptor-bound target concentrations), and assuming a 1:1 binding stoichiometry, the free (χƒ) mole fraction of target in the bulk solution can thus be estimated by eq 3. χf = (CT)/(CT^0) = 1-(Kd + CT^0 + CR^0 -sqrt(((Kd+CT^0+CR^0))^2 -4CT^0 CR^0))/(2CT^0) [formula]
Here, C^0R is the total concentration of the aptamer receptor added to the solution. Under the assumption of a slow interconversion of free and bound target on the time scale of CV experiments, the catalytic peak current can thus be expressed by a linear combination of the catalytic currents related to the free and bound target through eq 4. ip = 0.609nFSCT^0 sqrt(fv/RT)[χfsqrt(DT)+(1-χf)sqrt(DRT)] [formula] where DT and DRT are the diffusion coefficients of the free and receptor-bound target, respectively. […]

The target in series [2] is D-Apt49. The series can be described thus: Homogeneous electrochemical competitive binding assay in Tris buffer. To be noted: 5 µM Fc-L-Tym, K^*d fixed at 1.2 µM. The method, then:
as §1, §2, §3
The competitive assay can be described by the two equilibrated binding reactions 6a and 6b, in which Fc-L-Tym is L-tyrosinamide labeled by a redox-active ferrocene group. The ferrocenyl label was here incorporated on the ―OH position of the phenolic group (Scheme 1). Note that under this condition the catalytic oxidation of the phenolic residue is no more possible and only the ferrocene labeled molecule can be detected. [drawing 63] [drawing 64] with Kd = (CTCR)/CRT [formula] Kd^(*) = (CT^(*)CR)/CRT^(*) [formula] where CR is the concentration of free aptamer receptor. […] Ideally, the two binding constants should be as close as possible (Kd ≈ K^*d). The value of K^*d was determined by monitoring in CV the reversible response of 5 µM Fc-L-Tym solution as a function of increasing concentrations of D-Apt49.
The competitive binding assay was achieved from two separate solutions containing a starting mixture of 5 µM Fc- L-Tym and 3 µM or 10 µM D-Apt49, and to which an increasing amount of L-Tym was added. […]

For `NC(=O)[C@@H](N)Cc1ccc(O)cc1` [L-Tym, L-tyrosinamide], the Kd is 2.9 ± 0.3 µM at D-Apt49 [1] (5 µM target, 1 µM [Os(bpy)3]2+, 5 mM Tris buffer pH 7.0, 50 mM NaCl, 10 mM MgCl2, nonlinear fit of eq 5); 2.8 ± 0.4 µM on D-Apt49 [2] (3 µM D-Apt49, Tris buffer); 2.2 ± 0.6 µM on D-Apt49 [2] (10 µM D-Apt49, Tris buffer). In addition, the “DRT (diffusion coefficient of the receptor-bound target)” value in the series with D-Apt49 [1] (L-Tym bound to D-Apt49, assuming one electron exchanged) was 1.4 × 10^-6 cm^2 s^-1. In addition, the “DT (diffusion coefficient of the free target)” value in the series on D-Apt49 [1] (free L-Tym, assuming one electron exchanged) is recorded as 7 × 10^-6 cm^2 s^-1.
